Measured values taken from patent US20180369203A1, “METHODS OF TREATING CANCER BY ADMINISTERING A MEK INHIBITOR IN COMBINATION WITH A PROTEASOME INHIBITOR” (The Jackson Laboratory, priority 2015, published 2018).

What was measured:
WM115 cells = experiment: Lys48 ubiquitin immunostaining of aggregates in melanoma cells; assay type: cell-based, human; conditions: 20 nM AZD6244, 100 nM Bortezomib, or both, 24 hr
Protocol: FIGS. 5A-Y show MEK and proteasome inhibition provoke protein aggregation and amyloidogenesis. (A-B) WM115 cells treated with 20 nM AZD6244, 100 nM Bortezomib, or both for 24 hr were stained with Lys48-specific ubiquitin antibodies. Arrowheads mark ubiquitin-positive aggregates. Scale bar: 10 μm. Amounts of aggregates per cell were quantitated using ImageJ (median, n≥100, ANOVA). (C-F) Following transfection with polyQ79 plasmids alone or with both polyQ79 and HSF1^S326D plasmids for one day, HEK293T cells were treated with inhibitors as described in (A-B). Cells were either analyzed for aggregate size or stained with 10 μM ThT. (G) Treated tumor cell lines were stained with 10 μM ThT. Geometric means were used to calculate fold changes in ThT fluorescence intensity and the log 2(FC) values were presented as a heat map. (H) HEK293T cells were transfected with LacZ or polyQ79 plasmid. Following treatments, AOs were quantitated by ELISA using A11 antibodies (mean±SD, n=3, ANOVA). (I) Intrinsic AOs were detected in human tumor cell lines (mean±SD, n=3, ANOVA). […] Amyloids were quantitated by ELISA (mean±SD, n=3, Student's t-test). […] AF formation was monitored by ThT binding (mean±SD, n=3, ANOVA). […] Amyloids were quantitated (mean±SD, n=3, Student's t-test). […] Viable cells were quantitated by CellTiter® blue (mean±SD, n=6, Student's t-test). […] Viable cells were quantitated (mean±SD, n=6, ANOVA). […]

A2058 cells = experiment: Experimental melanoma metastasis, i.v. luciferase-expressing A2058 cells in NOD/SCID mice; assay type: in vivo; conditions: n=10 per group
Protocol: FIGS. 6A-N show combined MEK and proteasome inhibition exerts potent tumor-suppressive effects. (A) After treatments with 20 nM AZD6244, 100 nM Bortezomib, or both for 24 hr, viable cells were quantitated by CellTiter® Blue (mean±SD, n=6, ANOVA). (B and C) 1×10^6 A2058 cells were s.c. injected into NOD/SCID mice. After 7 days, mice were treated with DMSO, 5 mg/Kg AZD6244, 0.5 mg/Kg Bortezomib, or the combination via i.p. injection three times a week. Tumor volumes were measured using a caliper weekly (mean±SEM, ANOVA). Tumor growth curves were fitted to exponential growth models to derive tumor-doubling time (DT). Kaplan-Meier survival curve was plotted for each group (Log-rank test). (D) Proteins were detected by immunoblotting, 3 tumors per group. (E) Tumor lysates were used to quantitate AOs, 5 tumors per group (mean±SD, n=3, ANOVA). (F) Tumor lysates were used to seed Aβ1-42 peptides, 5 tumors per group (mean±SD, n=3, ANOVA). (G-H) Tumor sections were stained with CR, 5 tumors per group. […] Total CR fluorescence in each field was quantitated using ImageJ and normalized against total nuclei (median, n=50, ANOVA). […] Body weights were monitored weekly (mean±SD, n=10, ANOVA). […]
A2058 cells were s.c. injected into the left flanks of 9-week-old female NOD.CB17-Prkdc/J (NOD/SCID) mice (The Jackson Laboratory). […] Tumor volumes were calculated following the formula 4/3πR^3. […]

CC(C)C[C@H](NC(=O)[C@H](Cc1ccccc1)NC(=O)c1cnccn1)B(O)O [Bortezomib, bortezomib]
ubiquitin-containing aggregates (punctate foci) (WM115 cells): bright fluorescent punctate foci emerged | mice with luminescence detected by in vivo imaging (A2058 cells): 40%
